Measurements: patent US20170003277A1 (priority 2015, published 2017)

Columns and labels:
Type in all cases: cell-based
mouse splenocytes [1] = experiment: Immunological cell type enrichment for genes modulated by GA in mouse splenocytes; design: Score: scale not given here
Text: Genome-wide expression profiles in cells from three different datasets in two different species (human, mouse) were studied. LIMMA was utilized to identify a genome-wide list of differentially expressed genes induced by GA in the primed and ex vivo stimulated mouse splenocytes, as well as in the THP-1 human monocyte cell line. Repeated-measures ANOVA was utilized to find a genome-wide list of genes modulated by GA in treated MS patients. Advanced enrichment algorithms were then applied to elucidate the pathways and cell types modulated by GA.
In addition to the shared induced effects discussed above, each system and platform clearly captured different aspects of GA's impact on the immune system. […] In human PBMCs, genes associated with immune cell types were modulated early in treatment (by month 3), including certain cell types affected in prior systems, but also distinct cell types, such as megakaryocytes and myeloid progenitors (Table 11).

mouse splenocytes [2] = experiment: Microarray gene expression of ex vivo activated splenocytes from GA-immunized mice (Copaxone, Natco, Escadra, Probioglat, Hangzhou, TV-5010)
Text: After 3 days, the mice were sacrificed and cells from their spleens (splenocytes) were isolated because such cells are representative of, and commonly utilized as a gold standard to study the immune system.
Given the robustness of the model established in our first mouse splenocyte study, we sought to expand the scope of the investigation using the exact same study design, but with an expanded set of treatments (FIG. 1). In addition to comparing Copaxone® to a purported foreign generic version, we also sought to compare purported generics from various manufacturers to each other.
Extraction of total RNA from activated splenocytes was extracted using PerfectPure RNA Cultures CEKK kit 50 (5Prime GmbH, Hamburg, Germany) and following the manufacturer's instructions. RNA quality was assessed using the absorbance ratio at 260/280 nm and gel electrophoresis (Experion, Bio-Rad, Hercules, Calif., USA). Total RNA extracted from samples was hybridized to Illumina Mouse WG-6V2 microarray chips containing more than 45,200 transcripts.
Samples were randomized on the chips to avoid batch effects. Illumina's BeadStudio software was utilized for image processing, quantification of signal intensity per bead, and background signal correction. Multiple probes were analyzed for a given gene were averaged and batch correction was conducted using Partek. […]

[3] = tested on: THP-1 human monocyte cell line; experiment: Luminex secreted cytokines and chemokines from THP-1 cells, 24 hours, Polimunol or Probioglat vs Copaxone (Example 13); conditions: mannitol control
Method: To evaluate effects of Copaxone at the protein level, and assess the extent to which differences observed at the mRNA level (using micaroarry and qRT-PCR) were further consistent with effects observed at the level of the translated proteins, levels of 42 secreted cytokines and chemokines were measured using Luminex technology, analyzing the supernatant of THP-1 cells (human monocyte cell line) stimulated for 24 hours with Copaxone, FOGA, or mannitol control.
Measurements were also undertaken at the protein level, in order to assess the biological relevance of the observed gene expression differences. Levels of a panel of secreted cytokines and chemokines were measured via Luminex from THP-1 cells stimulated with branded GA, Polimunol, or Probioglat.
Cells from the THP-1 human monocyte cell line were incubated with branded GA, FOGA (Polimunol or Probioglat), or vehicle control (mannitol) for 24 hours. This time point was chosen in order to reflect translation of mRNA expression patterns observed in the same study design at 6 hours post stimulation. Supernatants were collected and assayed for the concentration of selected proteins using a Luminex assay. A total of 5 biological replicates per condition were utilized.
Data (concentrations in pg/mL) were compared using a two-sided t-test with equal variance, and corrected for multiple hypothesis testing using Benjamini-Hochberg correction. […]

[4] = B.GC.Sp.rnk, Upregulated (top 20 results)
[5] = DC.103.11b..LuLN.rnk, Downregulated (top 20 results)
[6] = DC.103.11b..PolyIC.Lu.rnk, Upregulated (top 20 results)
[7] = DC.103.11b.24..Lu.rnk, Upregulated (top 20 results)
[8] = DC.8.4.11b..SLN.rnk, Downregulated (top 20 results)
[9] = DC.Ilhilang.103.11b..SLN.rnk, Downregulated (top 20 results)
[10] = DC.Ilhilang.103.11blo.SLN.rnk, Downregulated (top 20 results)
[11] = DC.LC.Sk.rnk, Upregulated (top 20 results)
[12] = GN.Arth.BM.rnk, Downregulated (top 20 results)
[13] = GN.Arth.SynF.rnk, Downregulated (top 20 results)
[14] = GN.BI.rnk, Downregulated (top 20 results)
[15] = GN.BM.rnk, Downregulated (top 20 results)
[16] = GN.Thio.PC.rnk, Downregulated (top 20 results)
[17] = GN.UrAc.PC.rnk, Downregulated (top 20 results)
[18] = Mo.6C.Il..BM.rnk, Downregulated (top 20 results)
[19] = Mo.6C.Ilint.BI.rnk, Downregulated (top 20 results)
[20] = NK.H..MCMV1.Sp.rnk, Upregulated (top 20 results)
[21] = NK.MCMV1.Sp.rnk, Upregulated (top 20 results)
[22] = SC.CDP.BM.rnk, Downregulated (top 20 results)
[23] = SC.GMP.BM.rnk, Downregulated (top 20 results)
[24] = SC.MDP.BM.rnk, Downregulated (top 20 results)
[25] = SC.MEP.BM.rnk, Upregulated (top 20 results)
[26] = T.4FP3.25..AA.rnk, Upregulated (top 20 results)
[27] = T.4SP24int.Th.rnk, Downregulated (top 20 results)
[28] = T.8Eff.Sp.OT1.12hr.LisOva.rnk, Upregulated (top 20 results)
[29] = T.8Eff.Sp.OT1.24hr.LisOva.rnk, Upregulated (top 20 results)
[30] = T.8Eff.Sp.OT1.48hr.LisOva.rnk, Upregulated (top 20 results)
[31] = T.8Nve.Sp.OT1.rnk, Downregulated (top 20 results)
[32] = T.DPbl.Th.rnk, Upregulated (top 20 results)
[33] = T.ISP.Th.rnk, Upregulated (top 20 results)
[34] = Tgd.vg2.24ahi.e17.Th.rnk, Upregulated (top 20 results)
[35] = Tgd.vg3.24alo.e17.Th.rnk, Upregulated (top 20 results)
[36] = preB.FrC.BM.rnk, Upregulated (top 20 results)
[37] = preT.DN3B.Th.rnk, Upregulated (top 20 results)
[38] = preT.DN3.4.Th.rnk, Upregulated (top 20 results)
[39] = proB.CLP.BM.rnk, Downregulated (top 20 results)
[40] = proB.CLP.FL.rnk, Downregulated (top 20 results)
[41] = proB.FrA.FL.rnk, Upregulated (top 20 results)
[42] = proB.FrBC.FL.rnk, Upregulated (top 20 results)

With glatiramer acetate [Copaxone®] the Score (mouse splenocytes [1]; [4]) was 602.5, the p.val (mouse splenocytes [1]; [4]) was 1.01E−12 and the Score (mouse splenocytes [1]; [5]) was 1152. It also gave a p.val (mouse splenocytes [1]; [5]) of 2.47E−06, a Score (mouse splenocytes [1]; [6]) of 705 and a p.val (mouse splenocytes [1]; [6]) of 1.44E−14. It also gave a Score (mouse splenocytes [1]; [7]) of 738.3, a p.val (mouse splenocytes [1]; [7]) of 8.91E−12 and a Score (mouse splenocytes [1]; [8]) of 1117. It also gave a p.val (mouse splenocytes [1]; [8]) of 1.86E−07, a Score (mouse splenocytes [1]; [9]) of 1151 and a p.val (mouse splenocytes [1]; [9]) of 9.94E−08. For the same substance, the Score (mouse splenocytes [1]; [10]) was 1112, the p.val (mouse splenocytes [1]; [10]) was 5.07E−08 and the Score (mouse splenocytes [1]; [11]) was 709.9. It also gave a p.val (mouse splenocytes [1]; [11]) of 2.89E−15, a Score (mouse splenocytes [1]; [12]) of 1218 and a p.val (mouse splenocytes [1]; [12]) of 0. It also gave a Score (mouse splenocytes [1]; [13]) of 1160, a p.val (mouse splenocytes [1]; [13]) of 2.72E−11 and a Score (mouse splenocytes [1]; [14]) of 1185. The p.val (mouse splenocytes [1]; [14]) was 6.66E−15, the Score (mouse splenocytes [1]; [15]) was 1212 and the p.val (mouse splenocytes [1]; [15]) was 1.11E−16. For the same substance, the Score (mouse splenocytes [1]; [16]) was 1197, the p.val (mouse splenocytes [1]; [16]) was 6.39E−14 and the Score (mouse splenocytes [1]; [17]) was 1145. It also gave a p.val (mouse splenocytes [1]; [17]) of 5.87E−14, a Score (mouse splenocytes [1]; [18]) of 1095 and a p.val (mouse splenocytes [1]; [18]) of 1.71E−06. It also gave a Score (mouse splenocytes [1]; [19]) of 1107, a p.val (mouse splenocytes [1]; [19]) of 1.62E−05 and a Score (mouse splenocytes [1]; [20]) of 770.8. The p.val (mouse splenocytes [1]; [20]) was 7.11E−15, the Score (mouse splenocytes [1]; [21]) was 793.3 and the p.val (mouse splenocytes [1]; [21]) was 1.51E−14. The Score (mouse splenocytes [1]; [22]) was 1078, the p.val (mouse splenocytes [1]; [22]) was 0 and the Score (mouse splenocytes [1]; [23]) was 1341. It also gave a p.val (mouse splenocytes [1]; [23]) of 1.56E−05, a Score (mouse splenocytes [1]; [24]) of 1206 and a p.val (mouse splenocytes [1]; [24]) of 1.56E−05. It also gave a Score (mouse splenocytes [1]; [25]) of 641.2, a p.val (mouse splenocytes [1]; [25]) of 0 and a Score (mouse splenocytes [1]; [26]) of 697.6. The p.val (mouse splenocytes [1]; [26]) was 2.76E−11, the Score (mouse splenocytes [1]; [27]) was 1040 and the p.val (mouse splenocytes [1]; [27]) was 0. It also gave a Score (mouse splenocytes [1]; [28]) of 683, a p.val (mouse splenocytes [1]; [28]) of 0 and a Score (mouse splenocytes [1]; [29]) of 661.8. It also gave a p.val (mouse splenocytes [1]; [29]) of 5.97E−14, a Score (mouse splenocytes [1]; [30]) of 587.7 and a p.val (mouse splenocytes [1]; [30]) of 0. For the same substance, the Score (mouse splenocytes [1]; [31]) was 1095, the p.val (mouse splenocytes [1]; [31]) was 0 and the Score (mouse splenocytes [1]; [32]) was 659.3. For the same substance, the p.val (mouse splenocytes [1]; [32]) was 0, the Score (mouse splenocytes [1]; [33]) was 584.9 and the p.val (mouse splenocytes [1]; [33]) was 0. It also gave a Score (mouse splenocytes [1]; [34]) of 620, a p.val (mouse splenocytes [1]; [34]) of 9.88E−13 and a Score (mouse splenocytes [1]; [35]) of 620.8. It also gave a p.val (mouse splenocytes [1]; [35]) of 2.72E−11, a Score (mouse splenocytes [1]; [36]) of 620.2 and a p.val (mouse splenocytes [1]; [36]) of 0. For the same substance, the Score (mouse splenocytes [1]; [37]) was 568, the p.val (mouse splenocytes [1]; [37]) was 1.64E−10 and the Score (mouse splenocytes [1]; [38]) was 560.7. It also gave a p.val (mouse splenocytes [1]; [38]) of 2.96E−10, a Score (mouse splenocytes [1]; [39]) of 1181 and a p.val (mouse splenocytes [1]; [39]) of 1.35E−06. It also gave a Score (mouse splenocytes [1]; [40]) of 1115, a p.val (mouse splenocytes [1]; [40]) of 0 and a Score (mouse splenocytes [1]; [41]) of 578.6. The p.val (mouse splenocytes [1]; [41]) was 7.17E−11, the Score (mouse splenocytes [1]; [42]) was 595.3 and the p.val (mouse splenocytes [1]; [42]) was 0. The “IL1B expression, Copaxone compared with Natco purported generic” value (mouse splenocytes [2]; first mouse splenocyte study, adjusted p=0.043 by ANOVA) was “significantly lower IL1B expression”, the “IL1B expression relative to medium” value (mouse splenocytes [2]; mouse splenocytes) was “extremely effective in downregulating IL1B” and the “CCL2 secreted level relative to control” value [3] was “not modulated”.
